Earlier results in patent publication US20030230530A1, “Process for the preparation of a combination of Famotidine Polymorphs A and B” (M/S. TONIRA PHARMA LIMITED, priority 2002, published 2003).

Columns and labels:
[1] = background statement, comparison of Polymorph A and B
[2] = background statement, comparison of Polymorph A and B; remark: listed apart in the source

Row | stability of the polymorph [1] | dissolution properties [2] | Compound
1 | metastable | higher dissolution properties | N=C(N)Nc1nc(CSCCC(=N)NS(N)(=O)=O)cs1 [Polymorph B, N-Sulfamyl-3-(2-guanidinothiazole-4-yl-methylthio) proionamidine]
2 | more stable | low dissolution properties | N=C(N)Nc1nc(CSCCC(=N)NS(N)(=O)=O)cs1 [Polymorph A, N-Sulfamyl-3-(2-guanidinothiazole-4-yl-methylthio) proionamidine]
